Experimental data: patent EP3502109A1, “TRIAZOLE-PHENYL-THIAZOLE HETEROCYCLES AS INNOVATIVE INHIBITORS OF TRYPANOTHIONE REDUCTASE AND THEIR USE AS LEISHMANICIDES” (Consejo Superior De Investigaciones Científicas, priority 2017, dated 2019)
Counter-ions that a name gives are not always drawn. Like-named read-outs stand apart in the source and are kept apart here.

Key:
recombinant Li-TryR = recombinant Li-TryR (Leishmania infantum, UniProt A4HSF7); assay: Li-TryR oxidoreductase activity assay; assay type: biochemical
Method: Oxidoreductase activity was determined according to the method described by Hamilton et al. (Biochem. J., 2003, 369, 529-537). Briefly, reactions were carried out at 26 °C (250 µL) of HEPES pH 8.0 (40 mM) buffer containing EDTA (1 mM), NADPH (150 µM), NADP+ (30 µM), DTNB (25 µM), T[S]2 (1 µM), glicerol (0.02%), DMSO (1.5%) and recombinant Li-TryR (7 nM). […] Enzyme activity was monitored by the increase in absorbance at 412 nm for 1 h at 26 °C in a VERSAmax microplate reader (Molecular Devices, California, USA). All the assays were conducted in triplicate in at least three independent experiments. Data were analyzed using a non-linear regression model with the Grafit6 software (Erithacus, Horley, Surrey, UK).

Li-TryR dimeric form = Li-TryR dimeric form (Leishmania infantum, UniProt A4HSF7); assay: Dimer quantitation assay (ELISA), Li-TryR monomer displacement; assay type: binding
Method: The stability of the Li-TryR dimeric form in the presence of the compounds was evaluated using an Enzyme-Linked ImmunoSorbent Assay (ELISA). Briefly a dual (HIS/FLAG) tagged Li-TryR (400 nM) was incubated in a dimerization buffer (200 µL 300 mM NaCl, 50 mM Tris pH 8.0) for 16 h at 37 °C with agitation and in a humid atmosphere in the presence of different peptide concentration (10 to 90 µM) in 1.5ml tubes. Next, the tubes were centrifuged at 30000 rcf and supernatants were disposed in anti-flag coated 96 well plates and incubated 30 min, at 37°C with gentle shaking. Then the plates were washed ten times with TTBS (Tween 0.1%, 2 mM Tris, 138 mM NaCl 138 pH 7.6) and incubated with diluted monoclonal α-HIS HRP conjugated antibody (200 µL, Abcam, Cambridge, UK) in BSA (5%) in TTBS for 1 h at room temperature. The plates were washed once again as previously described and 1,2-phenylenediamine dihydrochloride (OPD) substrate (100 µL, Dako, Glostrup, Denmark) prepared according to manufacturer's instructions was added. The enzymatic reaction was stopped after 10 min with H2SO4 (100 µL, 0.5 M) and the absorbances were measured at 490 nm in a VERSAmax microplate reader (Molecular Devices, California, USA). All the assays were conducted in triplicate in at least three independent experiments. Data were analyzed using a non-linear regression model with the Grafit6 software (Erithacus, Horley, Surrey, UK). Table 1. IC50 ± SEM values for target compounds of formula I-A and I-B in the oxidoreductase activity assays and in the Li-TryR monomer displacement

[1] = system: macrophage-differentiated THP-1 monocytes; assay: Cytotoxicity assay, macrophage-differentiated THP-1 (crystal violet); assay type: cell-based; conditions: Homo sapiens, THP-1, 24 h; read-out: EC50 (µM) THP-1 dif
Method: (§1) Human THP-1 monocytic cells were seeded at 1.2 x 10^5 cells/ml in 24-multidish plates (Nunc, Roskilde, Denmark) and differentiated to macrophages for 24 h in 1 ml of RPMI 1640 medium containing 10 ng/ml of phorbol 12-myristate 13-acetate (PMA) (Sigma-Aldrich, St. Louis, MO). Human HepG2 cells were seeded at 8 x 10^5 cells/ml in 24-multidish plates (Nunc, Roskilde, Denmark). After 24 h of drug treatment, both cell lines were washed with PBS and stained with violet crystal solution (0.2% in 2% ethanol) in for 10 min. at room temperature. After dye removal, cells were washed twice with water. Once dried, the wells were treated with 1% SDS for 30 min and the absorbance at 570nm was monitored in a plate reader. Table 2. EC50± SEM values for the compounds of formula I-A and I-B on L. infantum promastigotes, extracellular and intracellular amastigotes and cytotoxic activity in macrophage-differentiated THP-1 monocytes and HepG2 cell lines

HepG2 cells = assay: Cytotoxicity assay, HepG2 (crystal violet); assay type: cell-based; conditions: Homo sapiens, HepG2, 24 h
Method: as §1

[2] = system: L. infantum promastigotes; assay: Leishmanicidal activity on promastigotes (PI exclusion, flow cytometry); assay type: cell-based; conditions: Leishmania infantum, 24 h
Method: L. infantum promastigotes (MCAN/ES/ 89/IPZ229/1/89) were grown in RPMI-1640 medium (Sigma-Aldrich, St. Louis, MO, USA) supplemented with 10% heat-inactivated fetal calf serum (FCS), antibiotics, and 25 mm HEPES (pH 7.2) at 26 °C.
(§2) Drug treatment of amastigotes was performed during the logarithmic growth phase at a concentration of 1×10^6 parasites/mL at 37 °C for 24 h. Drug treatment of promastigotes was performed during the logarithmic growth phase at a concentration of 2×10^6 parasites/mL at 26 °C for 24 h. The percentage of living cells was evaluated by flow cytometry by the propidium iodide (PI) exclusion method.^17 Drug concentrations ranged from 0.2 µM to 25 µM.

[3] = system: L. infantum axenic amastigotes; assay: Leishmanicidal activity on axenic amastigotes (PI exclusion, flow cytometry); assay type: cell-based; conditions: Leishmania infantum, 24 h
Method: L. infantum axenic amastigotes were grown in M199 (Invitrogen, Leiden, The Netherlands) medium supplemented with 10% heat inactivated FCS, 1 g/L β-alanine, 100 mg/L L-asparagine, 200 mg/L sacarose, 50 mg/L sodium pyruvate, 320 mg/L malic acid, 40 mg/L fumaric acid, 70 mg/L succinic acid, 200 mg/L α-ketoglutaric acid, 300 mg/L citric acid, 1.1 g/L sodium bicarbonate, 5 g/L MES, 0.4 mg/L hemin, 10 mg/L gentamicine pH 5.4 at 37 °C. THP-1 cells were grown in RPMI-1640 medium (Gibco, Leiden, The Netherlands) supplemented with 10% heat inactivated FCS, antibiotics, 1 mM HEPES, 2 mM glutamine and 1 mM sodium pyruvate, pH 7.2 at 37 °C and 5% CO2.
as §2

Li-TryR dimeric form, sequence (A4HSF7 entry or part of it): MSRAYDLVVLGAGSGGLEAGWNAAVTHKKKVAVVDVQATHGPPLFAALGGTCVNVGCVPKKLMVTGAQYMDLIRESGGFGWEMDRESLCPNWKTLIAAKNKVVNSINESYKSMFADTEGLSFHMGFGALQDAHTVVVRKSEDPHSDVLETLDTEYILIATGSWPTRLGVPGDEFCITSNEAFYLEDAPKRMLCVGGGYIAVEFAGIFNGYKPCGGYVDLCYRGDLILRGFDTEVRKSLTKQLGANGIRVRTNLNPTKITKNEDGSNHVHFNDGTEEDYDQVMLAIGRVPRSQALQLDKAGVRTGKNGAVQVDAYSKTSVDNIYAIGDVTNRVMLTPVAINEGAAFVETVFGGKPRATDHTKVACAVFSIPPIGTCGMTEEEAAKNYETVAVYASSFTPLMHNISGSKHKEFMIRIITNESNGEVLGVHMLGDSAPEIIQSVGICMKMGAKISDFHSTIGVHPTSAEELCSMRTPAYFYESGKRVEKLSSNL
recombinant Li-TryR, sequence (A4HSF7 entry or part of it): as above

SMILES	IC50 (recombinant Li-TryR; read-out: IC50 act)	IC50 (Li-TryR dimeric form; read-out: IC50 dim)	other results
CC(C)Oc1csc(-c2ccc(-n3cc(CCCCN)nn3)cc2OCCN2CCNC2=O)n1 [Compound 8a, 1-(2-(5-(4-(4-Aminobutyl)-1H-1,2,3-triazol-1-yl)-2-(4-isopropoxythiazol-2-yl)phenoxy)ethyl)imidazolidin-2-one 2,2,2 trifluoroacetate]	50.2 ± 2.37 µM	> 75 µM	–
NCCCCc1cn(-c2ccc(-c3nc(-c4ccccc4)cs3)c(OCCN3CCNC3=O)c2)nn1 [Compound 8c, 1-(2-(5-(4-(4-aminobutyl)-1H-1,2,3-triazol-1-yl)-2-(4-phenylthiazol-2-yl)phenoxy)ethyl)imidazolidin-2-one 2,2,2 trifluoroacetate]	24 ± 1.69 µM	29 ± 1.51 µM	–
NCCCCc1cn(-c2ccc(-c3nc(CCc4ccc(-c5ccccc5)cc4)cs3)c(OCCN3CCNC3=O)c2)nn1 [Compound 8h, 1-(2-(2-(4-(2-([1,1'-Biphenyl]-4-yl)ethyl)thiazol-2-yl)-5-(4-(4-aminobutyl)-1H-1,2,3-triazol-1-yl)phenoxy)ethyl)imidazolidin-2-one 2,2,2 trifluoroacetate]	–	–	EC50 [1]: 45.7 ± 0.6 µM; EC50 (HepG2 cells): 43.1 ± 2.65 µM; EC50 [2]: 5.44 ± 0.44 µM; IC50 (recombinant Li-TryR): 11.6 ± 2.05 µM; IC50 (Li-TryR dimeric form): 5.94 ± 0.99 µM; EC50 [3]: 13.9 ± 0.93 µM
NCCCCc1cn(-c2ccc(-c3nc(CCc4ccccc4)cs3)c(OCCC3CCNCC3)c2)nn1 [Compound 8l, 4-(1-(4-(4-phenethylthiazol-2-yl)-3-(2-(piperidin-4-yl)ethoxy)phenyl)-1H-1,2,3-triazol-4-yl)butan-1-amine 2,2,2 trifluoroacetate]	5.78 ± 0.89 µM	> 75 µM	–
COc1cc(-n2cc(CCCCN)nn2)ccc1-c1nc(CCc2ccccc2)cs1 [Compound 8m, 4-(1-(3-Methoxy-4-(4-phenethylthiazol-2-yl)phenyl)-1H-1,2,3-triazol-4-yl)butan-1-amine 2,2,2 trifluoroacetate]	–	–	EC50 [2]: 9.56 ± 0.44 µM; IC50 (recombinant Li-TryR): 17.5 ± 2.91 µM; IC50 (Li-TryR dimeric form): 89.2 ± 29.6 µM; EC50 [3]: 7.1 ± 0.9 µM
NCCCc1cn(-c2ccc(-c3nc(CCc4ccccc4)cs3)c(OCCN3CCNC3=O)c2)nn1 [Compound 8n, 1-(2-(5-(4-(3-aminopropyl)-1H-1,2,3-triazol-1-yl)-2-(4-phenethylthiazol-2-yl)phenoxy)ethyl)imidazolidin-2-one 2,2,2 trifluoroacetate]	41.2 ± 8.48 µM	> 75 µM	–
NCCCc1cn(-c2ccc(-c3nc(CCc4ccc(-c5ccccc5)cc4)cs3)c(OCCN3CCNC3=O)c2)nn1 [Compound 8o, 1-(2-(2-(4-(2-([1,1'-Biphenyl]-4-yl)ethyl)thiazol-2-yl)-5-(4-(3-aminopropyl)-1H-1,2,3-triazol-1-yl)phenoxy)ethyl)imidazolidin-2-one 2,2,2 trifluoroacetate]	21.8 ± 5.49 µM	11.1 ± 0.44 µM	–
NCCCCc1cn(-c2ccc(-c3nc(-c4ccccc4)c(-c4ccccc4)s3)c(OCCN3CCNC3=O)c2)nn1 [Compound 8p, 1-(2-(5-(4-(4-Aminobutyl)-1H-1,2,3-triazol-1-yl)-2-(4,5-diphenylthiazol-2-yl)phenoxy)ethyl)imidazolidin-2-one 2,2,2 trifluoroacetate]	6.07 ± 1.01 µM	4.15 ± 1.92 µM	–
C[n+]1nn(-c2ccc(-c3nc(-c4ccccc4)cs3)c(OCCN3CCNC3=O)c2)cc1CCCCN [Compound 10a, 4-(4-Ammoniobutyl)-3-methyl-1-(3-(2-(2-oxoimidazolidin-1-yl)ethoxy)-4-(4-phenylthiazol-2-yl)phenyl)-1H-1,2,3-triazol-3-ium 2,2,2-trifluoroacetate trifluoromethanesulfonate]	22.8 ± 0.98 µM	> 75 µM	–
C[n+]1nn(-c2ccc(-c3nc(CCc4ccccc4)cs3)c(OCCN3CCNC3=O)c2)cc1CCCCN [Compound 10b, 4-(4-Ammoniobutyl)-3-methyl-1-(3-(2-(2-oxoimidazolidin-1-yl)ethoxy)-4-(4-phenethylthiazol-2-yl)phenyl)-1H-1,2,3-triazol-3-ium 2,2,2-trifluoroacetate trifluoromethanesulfonate]	12.9 ± 0.98 µM	> 75 µM	–
C[n+]1nn(-c2ccc(-c3nc(CCc4ccc5ccccc5c4)cs3)c(OCCN3CCNC3=O)c2)cc1CCCCN [Compound 10c, 4-(4-Ammoniobutyl)-3-methyl-1-(4-(4-(2-(naphthalen-2-yl)ethyl)thiazol-2-yl)-3-(2-(2-oxoimidazolidin-1-yl)ethoxy)phenyl)-1H-1,2,3-triazol-3-ium 2,2,2-trifluoroacetate trifluoromethanesulfonate]	–	–	EC50 [1]: ≥ 75 µM; EC50 (HepG2 cells): ≥ 75 µM; EC50 [2]: 17.9 ± 3.76 µM; IC50 (recombinant Li-TryR): 2.67 ± 0.13 µM; IC50 (Li-TryR dimeric form): 82.7 ± 2.4 µM; EC50 [3]: 12.9 ± 0.51 µM
C[n+]1nn(-c2ccc(-c3nc(CCc4ccccc4)cs3)c(OCCN3CCNC3=O)c2)cc1CCCN [Compound 10i, 4-(3-Ammoniopropyl)-3-methyl-1-(3-(2-(2-oxoimidazolidin-1-yl)ethoxy)-4-(4-phenethylthiazol-2-yl)phenyl)-1H-1,2,3-triazol-3-ium 2,2,2-trifluoroacetate trifluoromethanesulfonate]	21.5 ± 2.87 µM	> 75 µM	–
C[n+]1nn(-c2ccc(-c3nc(CCc4ccc(-c5ccccc5)cc4)cs3)c(OCCN3CCNC3=O)c2)cc1CCCN [Compound 10j, 1-(4-(4-(2-([1,1'-Biphenyl]-4-yl)ethyl)thiazol-2-yl)-3-(2-(2-oxoimidazolidin-1-yl)ethoxy)phenyl)-4-(3-ammoniopropyl)-3-methyl-1H-1,2,3-triazol-3-ium 2,2,2-trifluoroacetate trifluoromethanesulfonate]	6.99 ± 0.59 µM	30.2 ± 3.47 µM	–
C[n+]1nn(-c2ccc(-c3nc(CCc4ccccc4)cs3)c(OCCC3CCNCC3)c2)cc1CCCCN [Compound 10k, Mono (4-(2-(5-(4-(4-ammoniobutyl)-3-methyl-1H-1,2,3-triazol-3-ium-1-yl)-2-(4-phenethylthiazol-2-yl)phenoxy)ethyl)piperidin-1-ium) mono(2,2,2-trifluoroacetate) mono(trifluoromethanesulfonate)]	3.35 ± 0.3 µM	> 75 µM	–
C[n+]1nn(-c2ccc(-c3nc(-c4ccccc4)c(-c4ccccc4)s3)c(OCCN3CCNC3=O)c2)cc1CCCCN [Compound 10l, 4-(4-Ammoniobutyl)-1-(4-(4,5-diphenylthiazol-2-yl)-3-(2-(2-oxoimidazolidin-1-yl)ethoxy)phenyl)-3-methyl-1H-1,2,3-triazol-3-ium 2,2,2-trifluoroacetate trifluoromethanesulfonate]	9.31 ± 0.92 µM	> 75 µM	–
